The source of these data is ChEMBL document CHEMBL5154881, “Discovery of First-in-Class TAK1-MKK3 Protein-Protein Interaction (PPI) Inhibitor (R)-STU104 for the Treatment of Ulcerative Colitis through Modulating TNF-α Production” (J Med Chem, 2022).

As usually defined, the inhibition is how much of the control response was suppressed. A word on the IC50: it is the point on the concentration scale where inhibition reaches its midpoint. In general, MRT inf refers to a mean duration of stay, worked out from the concentration-time curve. The logP is a log measure of how a compound divides between an organic and an aqueous phase. By Tmax is commonly meant the time at which the peak concentration occurs. The term Cmax denotes the maximum level reached in the sampled fluid or tissue.

For data set [1], the target named is T1, Mitogen-activated protein kinase kinase kinase 7 (Homo sapiens) (UniProt O43318).
T1 sequence (whole entry): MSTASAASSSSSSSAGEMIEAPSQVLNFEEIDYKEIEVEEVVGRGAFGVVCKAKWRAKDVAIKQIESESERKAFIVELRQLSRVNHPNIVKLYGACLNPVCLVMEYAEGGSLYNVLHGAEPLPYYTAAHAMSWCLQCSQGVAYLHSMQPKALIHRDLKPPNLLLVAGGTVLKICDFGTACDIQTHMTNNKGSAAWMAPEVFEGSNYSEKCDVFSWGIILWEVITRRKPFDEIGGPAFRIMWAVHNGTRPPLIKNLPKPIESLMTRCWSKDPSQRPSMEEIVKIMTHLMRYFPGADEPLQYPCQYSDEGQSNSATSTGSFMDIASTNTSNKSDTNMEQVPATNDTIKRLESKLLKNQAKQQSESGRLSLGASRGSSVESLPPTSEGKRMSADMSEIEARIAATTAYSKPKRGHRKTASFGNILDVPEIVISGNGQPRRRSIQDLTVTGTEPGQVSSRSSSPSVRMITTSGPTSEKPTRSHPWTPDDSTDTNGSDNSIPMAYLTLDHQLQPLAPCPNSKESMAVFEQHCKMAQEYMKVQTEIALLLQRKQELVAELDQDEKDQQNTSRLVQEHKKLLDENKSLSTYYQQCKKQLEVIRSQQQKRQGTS
The data set is described as follows: Inhibition of human TAK1 at 50 uM using casein as substrate incubated for 40 mins in presence of [gamma-33P]-ATP by scintillation counting method relative to control.

The subject of data set [2] is Mus musculus. Kind of data set: Inhibition of MKK3-p38 MAPK-elF4E signaling pathway in C57BL/6 mouse model of acute ulcerative colitis assessed as decrease in DSS-induced p38 MAPK phosphorylation in colon tissue administered intragastrically via gavage measured after 7 days by Western blot analysis. The settings on record: dose 1-50 mg/kg, time 7.0 day, DDE = dose-dependent effect. Background: A western blot detects proteins with antibodies after separation by electrophoresis.

The target of data set [3] is Voltage-gated inwardly rectifying potassium channel KCNH2 (Homo sapiens, UniProt Q12809). The data set is described as follows: Inhibition of hERG. The data set is classed as toxicity.
Data set [4] has as its system Mus musculus. The data set is described as follows: Antiinflammatory activity against DSS-induced C57BL/6 mouse model of acute ulcerative colitis assessed as inhibition of IL-6 mRNA expression in colon tissue administered intragastrically via gavage measured after 7 days by RT-qPCR analysis. The data set is classed as functional, organism-based. As to conditions: route ig, time 7.0 day, DDE = dose-dependent effect.

A further data set concerns RAW264.7. Kind of data set: Inhibition of TAK1-MKK3 protein-protein interaction in LPS-treated mouse RAW264.7 cells assessed as reduction in TAK1 levels at 3.13 to 12.5 umol/L incubated for 30 mins by immunoprecipitation method. The data set is classed as cell-based. As to conditions: dose 3.13-12.5 µmol/L.
For data set [5], the system named is Mus musculus. Kind of data set: Antiinflammatory activity against IL-10-/- C57BL/6 mouse model of ulcerative colitis assessed as inhibition ratio of IL-1beta mRNA expression in colon tissue at 3 mg/kg, IG via gavage and measured after 8 weeks by RT-qPCR analysis relative to control. The data set is classed as functional. The arrangement: scale not given: the % may be the effect or the level left.

Data set [6] concerns Mus musculus. The data set is described as follows: Antiinflammatory activity against DSS-induced C57BL/6 mouse model of acute ulcerative colitis assessed as inhibition ratio of TNF-alpha protein expression at 1 mg/kg, IG via gavage measured after 7 days by ELISA relative to control. The data set is classed as functional. The arrangement: scale not given: the % may be the effect or the level left. As to conditions: time 7 day. Background: ELISA stands for enzyme-linked immunosorbent assay.

The subject of data set [7] is Mus musculus. Kind of data set: Antiinflammatory activity against DSS-induced C57BL/6 mouse model of acute ulcerative colitis assessed as reduction in serum IL-1beta levels administered intragastrically via gavage measured after 7 days by ELISA. The data set is classed as functional, organism-based. As to conditions: dose 1-10 mg/kg, route ig, time 7.0 day, DDE = dose-dependent effect.

The subject of data set [8] is Mus musculus. The data set is described as follows: Anti-ulcerative colitis activity against DSS-induced ulcerative colitis C57BL/6 mouse model assessed as reduction in DAI recovery score ratio at 50 mg/kg, IG via gavage administered for 7 days and measured everyday relative to control. The data set is classed as functional. The arrangement: scale not given: the % may be the effect or the level left. As to conditions: time 7 day.

Data set [9] deals with Mus musculus. The data set is described as follows: Antiinflammatory activity against IL-10-/- C57BL/6 mouse model of ulcerative colitis assessed as inhibition ratio of TNF-alpha protein expression at 1 mg/kg, IG via gavage and measured after 8 weeks by ELISA relative to control. The data set is classed as functional. Set-up: scale not given: the % may be the effect or the level left.

Data set [10] deals with Mus musculus. Kind of data set: Antiinflammatory activity against DSS-induced C57BL/6 mouse model of acute ulcerative colitis assessed as inhibition ratio of TNF-alpha protein expression at 10 mg/kg, IG via gavage measured after 7 days by ELISA relative to control. The data set is classed as functional. Set-up: scale not given: the % may be the effect or the level left. The settings on record: time 7 day.

Data set [11] concerns Mus musculus. The data set is described as follows: Anti-ulcerative colitis activity in IL-10-/- C57BL/6 mouse model of ulcerative colitis assessed as histopathological score recovery ratio at 3 mg/kg, IG via gavage for 8 weeks relative to control. The data set is classed as functional.
Data set [12] concerns Mus musculus. Kind of data set: Antiinflammatory activity against IL-10-/- C57BL/6 mouse model of acute ulcerative colitis assessed as decrease in serum IL-6 levels administered intragastrically via gavage measured after 8 weeks by ELISA. The data set is classed as functional, organism-based. The settings on record: dose 3-10 mg/kg, route ig, DDE = dose-dependent effect.
Data set [13] has as its system Mus musculus. The data set is described as follows: Anti-ulcerative colitis activity against DSS-induced ulcerative colitis C57BL/6 mouse model assessed as reduction in DAI score at 3 mg/kg, IG via gavage administered for 7 days and measured everyday (reference value: 4.0). The data set is classed as functional. As to conditions: time 7 day.
Data set [14] is described as follows: MRT (0 to infinity) in 12 hr starved C57 mouse at 5 mg/kg, iv measured for 0.083 to 24 hrs post-dose by LC-MS-MS analysis. The data set is classed as ADME, organism-based. The settings on record: in vivo, time 0.083-24 hrs.
Data set [15] can be described thus: Toxicity in C57 mouse assessed as heart damage at 50 to 500 mg/kg, po administered daily for 14 days. The data set is classed as organism-based. The settings on record: in vivo, 336 h, dose 50-500 mg/kg, time 14 day.
For data set [16], the system named is Mus musculus. The data set is described as follows: Antiinflammatory activity against IL-10-/- C57BL/6 mouse model of ulcerative colitis assessed as inhibition ratio of TNF-alpha mRNA expression in colon tissue at 1 mg/kg, IG via gavage and measured after 8 weeks by RT-qPCR analysis relative to control. The data set is classed as functional. The arrangement: scale not given: the % may be the effect or the level left. A general note: Real-time PCR tracks product formation cycle by cycle.

The nature of data set [17]: n-Octanol/water partition coefficient, logP of the compound incubated for 24 hrs by HPLC analysis. The data set is classed as physicochemical.
Data set [18] relates to Mus musculus. Kind of data set: Antiinflammatory activity against DSS-induced C57BL/6 mouse model of acute ulcerative colitis assessed as inhibition ratio of IL-1beta protein expression at 10 mg/kg, IG via gavage measured after 7 days by ELISA relative to control. The data set is classed as functional. The arrangement: scale not given: the % may be the effect or the level left. As to conditions: time 7 day.

Data set [19] can be described thus: Apparent clearance during terminal phase in 12 hr starved C57 mouse at 30 mg/kg, po measured for 0.083 to 24 hrs post-dose by LC-MS-MS analysis. The data set is classed as ADME, organism-based. As to conditions: in vivo, time 0.083-24 hrs.
Data set [20] is described as follows: Tmax in 12 hr starved C57 mouse at 30 mg/kg, po measured for 0.083 to 24 hrs post-dose by LC-MS-MS analysis. The data set is classed as ADME, organism-based. The settings on record: in vivo, time 0.083-24 hrs.
Data set [21] deals with Mus musculus. Kind of data set: Antiinflammatory activity against DSS-induced C57BL/6 mouse model of acute ulcerative colitis assessed as inhibition ratio of IL-23 protein expression at 1 mg/kg, IG via gavage measured after 7 days by ELISA relative to control. The data set is classed as functional. The settings on record: time 7 day. Set-up: scale not given: the % may be the effect or the level left.

The nature of data set [22]: Cmax in 12 hr starved C57 mouse at 30 mg/kg, po measured for 0.083 to 24 hrs post-dose by LC-MS-MS analysis. The data set is classed as ADME, organism-based. Set-up: dose 30 mg/kg, time 0.083-24 hrs, route po. As to conditions: in vivo.
Data set [23] has as its system Mus musculus. Kind of data set: Antiinflammatory activity against IL-10-/- C57BL/6 mouse model of ulcerative colitis assessed as inhibition ratio of IL-23 protein expression at 10 mg/kg, IG via gavage and measured after 8 weeks by ELISA relative to control. The data set is classed as functional. The arrangement: scale not given: the % may be the effect or the level left.

Active and inactive are the calls of the source. No cut-off for these calls is given here.

Voltage-gated inwardly rectifying potassium channel KCNH2, sequence (Q12809 whole entry): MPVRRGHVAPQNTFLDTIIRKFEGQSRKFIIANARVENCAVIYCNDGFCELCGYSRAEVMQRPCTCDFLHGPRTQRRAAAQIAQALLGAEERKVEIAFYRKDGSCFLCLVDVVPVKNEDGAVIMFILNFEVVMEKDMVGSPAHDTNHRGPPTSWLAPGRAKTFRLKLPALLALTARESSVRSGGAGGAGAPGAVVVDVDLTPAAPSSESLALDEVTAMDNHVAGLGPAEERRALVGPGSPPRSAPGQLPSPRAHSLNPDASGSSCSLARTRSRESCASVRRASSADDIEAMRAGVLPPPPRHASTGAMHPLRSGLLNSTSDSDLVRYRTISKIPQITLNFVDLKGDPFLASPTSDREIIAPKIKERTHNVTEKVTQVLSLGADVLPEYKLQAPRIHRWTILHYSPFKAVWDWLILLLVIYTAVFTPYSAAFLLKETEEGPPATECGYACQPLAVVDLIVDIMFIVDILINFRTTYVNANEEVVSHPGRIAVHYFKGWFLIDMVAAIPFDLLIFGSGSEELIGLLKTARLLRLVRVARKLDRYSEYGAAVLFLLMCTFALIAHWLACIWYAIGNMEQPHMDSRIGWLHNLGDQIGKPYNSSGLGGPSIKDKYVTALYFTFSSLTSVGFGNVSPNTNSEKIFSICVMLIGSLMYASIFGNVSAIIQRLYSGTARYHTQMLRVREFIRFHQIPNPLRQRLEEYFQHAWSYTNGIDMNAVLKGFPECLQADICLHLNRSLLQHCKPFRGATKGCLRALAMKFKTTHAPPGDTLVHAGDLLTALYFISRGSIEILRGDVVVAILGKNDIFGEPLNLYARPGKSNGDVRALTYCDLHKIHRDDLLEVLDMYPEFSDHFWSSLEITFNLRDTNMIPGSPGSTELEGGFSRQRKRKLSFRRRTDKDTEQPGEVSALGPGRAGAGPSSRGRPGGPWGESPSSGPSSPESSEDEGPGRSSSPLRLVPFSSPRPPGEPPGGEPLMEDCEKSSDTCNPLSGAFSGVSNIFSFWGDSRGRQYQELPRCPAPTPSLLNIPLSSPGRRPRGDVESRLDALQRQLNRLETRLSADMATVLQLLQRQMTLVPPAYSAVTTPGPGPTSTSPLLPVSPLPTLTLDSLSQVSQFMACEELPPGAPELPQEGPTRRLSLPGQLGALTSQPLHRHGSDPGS

As to `COc1ccc([C@H]2CC(=O)c3cc(OC)cc(OC)c32)cc1`, the values for the inhibition (in [1]; in the data set with Mus musculus [2]) were less than 10% and “Dde”, respectively. The IC50 in data set [3] was greater than 30 µM. Moreover, the Activity result in the data set with Mus musculus [4] is “Dde”; in the data set with Mus musculus [5], 36.1%; with Mus musculus [6] it was 32.9%; in the data set on Mus musculus [7], “Dde”; with Mus musculus [8], 22.7%; in the data set on Mus musculus [9] it was 40.2%. Also, the Activity was 58.1% with Mus musculus [10]; 50.5% in the data set with Mus musculus [11]; “Dde” with Mus musculus [12]; 2.4 in the data set on Mus musculus [13]; “Non-Toxic” in [15]; 24.7% in the data set on Mus musculus [16]. The figures for the Activity with Mus musculus [18], in the data set with Mus musculus [21] and in the data set with Mus musculus [23] were 64.4%, 46.2% and 64.4%, respectively. The inhibition result in the data set with RAW264.7 is “Active”. For the same molecule, the MRT inf in data set [14] came out at 7.32 h. Moreover, in data set [17], the logP at 24 h was found to be 2.01. In data set [19], the CLz/F stood at 4.83 mL/min/kg. In addition, the Tmax in [20] was 4.98 min. The molecule further gave a Cmax in data set [22] of 2290 ng/mL.
